pIC50, pKd: −log10 of the molar value. Several values for one entry are separate records, joined by “and”; a condition that tells them apart may be missing. Identical values can stand only once. Like-named read-outs stand apart in the source and are kept apart here. No end group written: not given here.
Key:
HLA-A*0201 (HLA-A2.1) = HLA-A*0201 (HLA-A2.1) (Homo sapiens, UniProt P04439, D140Y/D185E/D98H/E176V/E277Q/G131W/G231S/I119V/I121R/I166T/I218V/L300P/L318F/N151K/N90K/P208A/P217A/Q86G/Q94H/R138H/R169H/T345S); experiment: biochemical; type: binding
HLA-A24 = type: binding, human
A*3002 = A*3002 (Homo sapiens, UniProt P04439, D101N/D140H/D185E/E176R/F33S/G80R/H175R/K168Q/Q94H/R138E/R41S/V100E); experiment: biochemical; type: binding
A*3002, sequence (P04439 whole entry, looked up, the tested form may be a part, stated change not applied): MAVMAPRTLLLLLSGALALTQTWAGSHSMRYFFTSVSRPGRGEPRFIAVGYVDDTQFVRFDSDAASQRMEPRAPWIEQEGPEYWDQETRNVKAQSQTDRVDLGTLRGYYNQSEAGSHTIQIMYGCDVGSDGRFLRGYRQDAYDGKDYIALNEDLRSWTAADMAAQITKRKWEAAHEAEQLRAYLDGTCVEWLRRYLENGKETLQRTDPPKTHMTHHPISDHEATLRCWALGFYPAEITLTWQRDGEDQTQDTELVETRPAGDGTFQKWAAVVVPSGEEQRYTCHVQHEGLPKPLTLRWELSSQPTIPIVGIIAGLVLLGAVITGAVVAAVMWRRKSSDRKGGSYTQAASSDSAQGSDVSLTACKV

A*2902 = A*2902 (Homo sapiens, UniProt P04439, A270S/D101N/D185E/E176V/E277Q/E87Q/F33T/G231S/H175R/I121M/I218V/I322F/K168Q/L300P/L318F/M331R/P208A/P217A/Q86L/T323A/T345S/V100A/V358M); experiment: biochemical; type: binding
HLA-A1 (A*0101) = HLA-A1 (A*0101) (Homo sapiens, UniProt P04439, A114D/A174V/A182V/D101N/D185E/E176A/E190D/L180R/Q94H/R68K/S129P/T187R/V100A/V91M/W191G); experiment: biochemical; type: binding
A2.1 HLA molecules = A2.1 HLA molecules (Homo sapiens, UniProt P04439, D140Y/D185E/D98H/E176V/E277Q/G131W/G231S/I119V/I121R/I166T/I218V/L300P/L318F/N151K/N90K/P208A/P217A/Q86G/Q94H/R138H/R169H/T345S); type: binding; set-up: A*0201 / A2.1 Binding / A2 Bind. / A2 / A2.1 (binding capacity): scale not given here

Row | Substance | binding to HLA-A2.1 (column 3; no allele head shown for these rows) (HLA-A*0201 (HLA-A2.1)) | binding to HLA-A24 (column 6; no allele head shown for these rows) (HLA-A24) | pIC50 (A*3002) | pIC50 (HLA-A1 (A*0101)) | other results
1 | AAISRKMVEL | 0 | 0 | – | – | –
2 | AALSRKVAEL | – | 0 | – | – | –
3 | AATSSSSPL | 0 | <0.0002 | – | – | –
4 | AFTDLTIVY [Peptide 78.0348] | – | – | 7.15 | 7.51 | pIC50 (A*2902): 7.44
5 | ALAETSYVK | 0.0002 | 0 | – | – | –
6 | ALAETSYVKV | 0.017 | 0 | – | – | A2 (A2.1 HLA molecules): 0.0150; A2 Bind. (A2.1 HLA molecules): 0.0150
7 | ALGLVCVQAA | 0.0002 | 0 | – | – | –
8 | ATLERTEVY [Peptide 78.0252] | – | – | 7.59 | 6.18 | pIC50 (A*2902): 6.25
9 | AYIDNVYKF [Peptide 979-01, reference compound] | – | – | – | – | apparent % of available receptor (active MHC) (HLA-A24): 8.3%; pKd (HLA-A24; read-out: KD from Scatchard experiments, A24): 6.87; pKd (HLA-A24; read-out: apparent KD from cold inhibition experiments, A24): 7.52
10 | EALEAQQEAL | 0 | 0 | – | – | –
11 | EAQQEALGL | 0 | <0.0002 | – | – | –
12 | EIWEELSVMEV | 0.013 | 0 | – | – | –
13 | ELDPVDLLCY [Peptide 78.0017] | – | – | 4.89 | 7.59 | –
14 | EMLESVIKN | – | – | – | – | A2.1 (HLA-A*0201 (HLA-A2.1)): <0.0002; A24 (HLA-A24): 0
15 | ESNSLKCLRY [Peptide 1580.26] | – | – | 6.22 | 6.44 | pIC50 (A*2902): 5.12
16 | ETSYVKVLEY | 0 | 0 | – | – | –
17 | EYRHYNYSVY [Peptide 78.0180] | – | – | 6.60 | < 4.70 | pIC50 (A*2902): 4.80
18 | EYRHYQYSLY [Peptide 78.0183] | – | – | 6.89 | 5.64 | pIC50 (A*2902): 5.62
19 | F185.01 (LYSACFWWL) [Peptide F185.01] | – | – | – | – | pIC50 (HLA-A24; read-out: A*2402): 7.55
20 | FLIIVLVMIAM | 0.0041 and 0.0031 | 0.0011 | – | – | –
21 | FLLLKYRA | 0.0007 | 0 | – | – | –
22 | FYSKVRKYRY [Peptide 78.0176] | – | – | 6.49 | < 4.70 | pIC50 (A*2902): 6.84
23 | GASAFPTTI | 0 | <0.0002 | – | – | –
24 | GASSFSTTI | 0 | 0.0002 | – | – | –
25 | GASSLPTTM | 0 | 0.0010 | – | – | –
26 | GLLGDNQIM | 0.0054 | 0.0002 | – | – | A2.1 (HLA-A*0201 (HLA-A2.1)): 0.0051

Row | Substance | binding to HLA-A2.1 (column 3; no allele head shown for these rows) (HLA-A*0201 (HLA-A2.1)) | binding to HLA-A24 (column 6; no allele head shown for these rows) (HLA-A24) | pIC50 (A*3002) | pIC50 (HLA-A1 (A*0101)) | other results
27 | GLVCVQAA | 0.0008 | 0 | – | – | –
28 | GLVCVQAAT | 0.0007 | 0.0001 | – | – | –
29 | GNEKTYFKY [Peptide 86.0160] | – | – | 6.13 | 5.64 | pIC50 (A*2902): 6.50
30 | ILESLFRA | 0.0017 | 0.0011 | – | – | –
31 | ILLWQPIPV | 1.4 | 0 | – | – | –
32 | IMPKTGFLI | 0.0035 | 3.2 | – | – | –
33 | IMPKTGFLII | 0.0007 | 0.050 | – | – | –
34 | ISEYRHYQY [Peptide 78.0254] | – | – | 7.09 | 7.34 | pIC50 (A*2902): 6.07
35 | KAEMLESVI | 0 | <0.0002 | – | – | –
36 | KAEMLESVL | 0 | 0 | – | – | –
37 | KAGLLIIVL | – | 0 | – | – | –
38 | KALKFYSKI [Peptide E6-72] | – | – | – | – | binding class for HLA-A24 (HLA-A24): high affinity (key: high affinity: >0.1; intermediate affinity: 0.1-0.01; low affinity: 0.01-0.001)
39 | KFYSKISEY [Peptide 78.0363] | – | – | 8.02 | < 4.70 | pIC50 (A*2902): 5.80
40 | KVADLVGFL | 0.0091 | 0 | – | – | –
41 | KVAELVHFL | 0.073 | 0.0005 | – | – | –
42 | LAETSYVKVL | 0 | <0.0002 | – | – | –
43 | LFTDLRIVY [Peptide 78.0378] | – | – | 7.05 | – | pIC50 (A*2902): 7.92
44 | LFYSKVRKY [Peptide 78.0384] | – | – | 7.46 | < 4.70 | pIC50 (A*2902): 6.70
45 | LKEYVLDLY [Peptide 78.0250] | – | – | 7.12 | < 4.70 | pIC50 (A*2902): 5.48
46 | LSDISEYRHY [Peptide 1549.45] | – | – | – | 7.57 | pIC50 (A*2902): 4.84
47 | LTEITGYLY [Peptide 9012.0126] | – | – | 6.82 | 7.80 | pIC50 (A*2902): 7.60
48 | LVFGIELMEV | – | 0 | – | – | –
49 | LYPEPTDLY [Peptide 78.0354] | – | – | 5.83 | < 4.70 | –
50 | MLESVIKNYK | 0 | 0 | – | – | –
51 | MLETLNNTEY [Peptide 1580.24] | – | – | 5.95 | 7.44 | –
52 | NTDILTVTY [Peptide 1593.17] | – | – | 5.70 | 7.66 | –

Row | Substance | binding to HLA-A2.1 (column 3; no allele head shown for these rows) (HLA-A*0201 (HLA-A2.1)) | binding to HLA-A24 (column 6; no allele head shown for these rows) (HLA-A24) | pIC50 (A*3002) | pIC50 (HLA-A1 (A*0101)) | other results
53 | QAATSSSSPL | 0 | <0.0002 | – | – | –
54 | QAEPDRAHY [Peptide 78.0244] | – | – | 7.80 | 5.49 | pIC50 (A*2902): < 4.70
55 | QAEQATSNYY [Peptide 78.0022] | – | – | 5.84 | – | pIC50 (A*2902): < 4.70
56 | QIMPKTGFLII | 0.0003 | 0.0030 | – | – | –
57 | RAHYNIVTF [Peptide E7-49] | – | – | – | – | binding class for HLA-A24 (HLA-A24): intermediate affinity (key: high affinity: >0.1; intermediate affinity: 0.1-0.01; low affinity: 0.01-0.001)
58 | RFHNIGGRW [Peptide 78.0369] | – | – | 7.89 | < 4.70 | pIC50 (A*2902): 4.92
59 | RFHNIMGRW [Peptide 78.0381] | – | – | 7.57 | < 4.70 | pIC50 (A*2902): < 4.70
60 | RFHSIAGQY [Peptide 78.0376] | – | – | 9.00 | < 4.70 | –
61 | RTDSVILNVLY [Peptide 9012.0162] | – | – | 8.07 | 7.85 | pIC50 (A*2902): 6.02
62 | SAYGEPRKL | 0.0002 | <0.0002 | – | – | –
63 | SAYGEPRKLL | 0 | 0.0008 | – | – | –
64 | SLQLVFGI | 0.0094 | 0 | – | – | –
65 | SLQLVFGIDV | 0.0047 | 0.0001 | – | – | –
66 | VADLVGFLL | 0.0011 | 0.0007 | – | – | –
67 | VADLVGFLLL | 0.0008 | 0.0003 | – | – | –
68 | VAELVHFLL | 0 | 0.039 | – | – | –
69 | VAELVHFLLL | – | 0.0018 | – | – | –
70 | VIPHAMSSCGV | 1.4 | 0 | – | – | –
71 | VLGTLEEV | 0.0088 | 0 | – | – | –
72 | VLVTCLGL | 0.0010 | 0 | – | – | –
73 | VTETLEEITGY [Peptide 9012.0178] | – | – | 4.95 | 7.70 | pIC50 (A*2902): < 4.70
74 | YLEYGRCRTV | 0.0097 | 0 | – | – | –
75 | YSDREIIY [Peptide 9012.0096] | – | – | – | 7.03 | pIC50 (A*2902): < 4.70
76 | YSKVSEFRWY [Peptide 78.0009] | – | – | – | 6.27 | pIC50 (A*2902): 5.35
77 | YSRIRELRY [Peptide 78.0253] | – | – | – | 6.51 | pIC50 (A*2902): 5.20
